“Also recorded” adds a separate entry of the source. Read-outs that look alike come from different tables or passages of the source.
Key:
HIV-1 virus strain IIIB = test: microbe, parasite or virus in culture; details: for inhibition at 5 µM: read-out: inhibition of viral replication; for effect on viral replication (in words): non-activated CD4+ lymphocytes, HC 0.05 or 0.15 mM, ddI or AZT 5 μM; for p24-HIV production in culture supernatant: day 15, infected control 86215
Protocol: (§1) Non-activated CD4^+ cells were infected, then treated for 7 days by HC, ddI or the combination of the two, then activated by PHA and IL-2 (PHA-IL-2).
(§2) The CD4^+ lymphocytes were purified from PBMC with immunomagnetic beads (Dynabeads* M450). These cells were infected with the HIV-1 virus strain IIIB at a multiplicity of infection of 5 000 tissue culture infectious dose (TCID) per 10^6 cells (241 pg/ml p24 antigen equivalent of virus). After 2 hours of virus-cell contact, the cells were washed twice and placed in the culture medium RPMI 1640 (supplemented with 10% fetal calf serum (FCS), 2 mM glutamine, penicillin 100 IU/ml and Streptomycin 100 μg/ml) at a density of 1.3×10^6 cells/ml. ddI was immediately added at a concentration of 5 μM and HC at concentrations of 0.05 mM and […]. The drugs and culture medium were partially renewed (50%) on day 4, maintaining the same concentration of each. On day 7, in order to remove the drugs, the cells were washed twice and put back in culture in the presence of PHA at a concentration of 1 μg/ml and recombinant IL-2 at a concentration of 20 U/ml. This culture was maintained until day 25, with partial renewal (50%) of the medium twice a week. The number of viable cells was quantified by a tetrazolium-based colorimetric 3-(4,5-dimethylthiazol-2-yl)-2,5-diphenyltetrazolium bromide (MTT) method (Pauwels, R. et al J. Virol. Methods, 20, 309-321, (1988)), and activity is expressed as a percentage of the signal in the drug-free and virus-free control. Viral replication was quantified by measuring the HIV-1 p24 antigen by ELISA using the Dupont de Nemours kit.
In FIG. 2, there is shown a study of the activity of the combination of AZT and HC on non-activated CD4^+ lymphocytes infected with the HIV virus. The CD4^+ lymphocytes were purified from PBMC with immunomagnetic beads (Dynabeads* M450). These cells were infected with the HIV-1 virus strain IIIB at a multiplicity of infection of 5 000 tissue culture infectious dose (TCID) per 10^6 cells (241 pg/ml p24 antigen equivalent of virus). After 2 hours of virus-cell contact, the cells were washed twice and placed in the culture medium RPMI 1640 (supplemented with 10% FCS, 2 mM glutamine, penicillin 100 IU/ml and streptomycin 100 μg/ml) at a density of 1.3×10^6 cells/ml. AZT was immediately added at a concentration of 5 μM and HC at a concentration of 0.05 mM and 0.15 mM. The drugs and culture medium were partially renewed (50%) on day 4, maintaining the same concentration of each. On day 7, in order to remove the drugs, the cells were washed twice and put back in culture in the presence of PHA at a concentration of 1 μg/ml and recombinant IL-2 at a concentration of 20 U/ml. This culture was maintained until day 25, with partial renewal (50%) of the medium twice a week. The number of viable cells was quantified by a tetrazolium-based colorimetric 3-(4,5-dimethylthiazol-2-yl)-2,5-diphenyltetrazolium bromide (MTT) method (Pauwels, R. et al J. Virol. Methds, 20,309-321, (1988)), and activity is expressed as a percentage of the signal in the drug-free and virus-free control. Viral replication was quantified by measuring the HIV-1 p24 antigen by ELISA using the Dupont de Nemours kit.

in vitro = details: human, cd4+ lymphocytes
Protocol: as §1
as §2, with “This culture was maintained until day 25, with partial renewal (50%) of the medium twice a week.” left out
(§3) In FIG. 2, there is shown a study of the activity of the combination of AZT and HC on non-activated CD4^+ lymphocytes infected with the HIV virus. […] The number of viable cells was quantified by a tetrazolium-based colorimetric 3-(4,5-dimethylthiazol-2-yl)-2,5-diphenyltetrazolium bromide (MTT) method (Pauwels, R. et al J. Virol. Methds, 20,309-321, (1988)), and activity is expressed as a percentage of the signal in the drug-free and virus-free control. Viral replication was quantified by measuring the HIV-1 p24 antigen by ELISA using the Dupont de Nemours kit.

HIV-1 strain IIIB = test: microbe, parasite or virus in culture; details: for p24 production: day 6
Protocol: (§4) The PBMC were purified from peripheral blood by discontinous Ficoll density gradient centrifugation. The cells were grown at a density of 1.3×10^6 cells/ml in RPMI 1640 medium supplemented with 10% FCS, 2 mM glutamine, penicillin 100 IU/ml and streptomycin 100 μg/ml, in the presence of PHA at a concentration of 1 μg/ml and recombinant IL-2 at 20 U/ml for 72 hours, then infected by HIV-1 strain IIIB at a multiplicity of 5000 TCID for 10^6 cells (241 pg/ml p24 antigen equivalent of virus). In FIG. 3, the first time point represent viral infection of the cells. After 2 hours of virus-cell contact, the cells were washed twice and placed in the culture medium containing IL-2 but without PHA in the presence of ddI at a concentration of 10 μM and of HC at a concentration of 0.15 mM. These cultures were maintained for 20 days, with partial renewal of the medium and of the two drugs twice a week maintaining the initial concentration. At day 6 and day 14 fresh uninfected donor PBMC were added (5×10^5 /ml) to replenish aged cultures (Nature, 361:1993, 650-654). The number of viable cells were quantified by a tetrazolium-based colorimetric 3-(4,5-dimethylthiazol-2-yl)-2,5-diphenyltetrazolium bromide (MTT) method (Pauwels, R. et al J. Virol. Methods, 20:309-321, (1988)), and activity is expressed as a percentage of the signal in the drug-free and virus-free control. Viral replication was quantified by measuring the HIV-1 p24 antigen by ELISA using the Dupont de Nemours kit.

[1] = system: dNTP pools in PHA-stimulated PBLs; details: HC 1 mM, cited from earlier work
[2] = Cell viability of preactivated PBMC by Trypan Blue exclusion; type: cell-based; details: human, HC 0.15 mM, 2% Trypan Blue exclusion, read-out: cellular viability
[3] = system: PBMC preactivated with PHA and IL-2; test: Inhibitory concentration 50% in preactivated PBMC by MTT test; type: cell-based; details: 72 h, read-out: IC50 (inhibitory concentration 50%), after 3 days
Protocol: as §4, with “At day 6 and day 14 fresh uninfected donor PBMC were added (5×10^5 /ml) to replenish aged cultures (Nature, 361:1993, 650-654).” left out

[4] = Cytotoxicity in non-activated lymphocytes (PBLs) pretreated 24 h and then activated 48 h; type: cell-based; details: human, HC 1 mM, 24 h pretreatment, then PHA and IL-2 for 48 h in presence of HC, read-out: PBLs dying due to the drug's toxicity
Description: Under such conditions, greater than 70% of the PBLs die due to the drug's toxicity.

[5] = system: non-activated CD4+ lymphocytes; test: in vitro; details: after PHA-IL-2 stimulation
Protocol: as §1
as §2, with “This culture was maintained until day 25, with partial renewal (50%) of the medium twice a week.” left out
as §3

[6] = Human immunodeficiency virus 1, IIIB, Lymphocyte
[7] = single drug 5 μM, infected control 86215 pg p24/ml
[8] = Human immunodeficiency virus 1, IIIB, PBMC, 144 h, read-out: inhibition of viral replication

| Structure (SMILES) | log reduction at 5 µM (HIV-1 virus strain IIIB; Human immunodeficiency virus 1, IIIB, Lymphocyte, read-out: antiviral activity (log reduction)) | inhibition at 5 µM (HIV-1 virus strain IIIB; [6]) [%] | effect on viral replication (in words) (HIV-1 virus strain IIIB) | p24 production (HIV-1 virus strain IIIB; [7]) [pg p24/ml] | cytotoxicity at 50 µM (in vitro) [%] | cytotoxicity at 150 µM (in vitro) [%] | p24 production (HIV-1 strain IIIB; HC alone 0.15 mM) [pg p24/ml] | inhibition at 150 µM (HIV-1 strain IIIB; [8]) [%] | effect on dNTP levels and DNA synthesis rate (in words) ([1]; listed as hydroxyurea) | effect on dNTP levels and DNA synthesis rate (in words) [1] | viability at 72 h, 150 µM [2] [%] | IC50 [3] [µM] | p24-HIV production in culture supernatant (HIV-1 virus strain IIIB; HC 0.05 mM) | p24-HIV production in culture supernatant (HIV-1 virus strain IIIB; HC 0.15 mM) | cytotoxicity at 72 h, 1000 µM [4] [%] | proliferative cellular response / cytopathic effect (in words) [5] | inhibition at 10 µM (HIV-1 strain IIIB; [8]) [%] | p24 production (HIV-1 strain IIIB; ddI alone 10 μM) [pg p24/ml] | p24 production (HIV-1 virus strain IIIB; ddI 5 μM alone, day 25) [pg p24/ml] |
| --- | --- | --- | --- | --- | --- | --- | --- | --- | --- | --- | --- | --- | --- | --- | --- | --- | --- | --- | --- |
| Cc1cn([C@H]2C[C@H](N=[N+]=[N-])[C@@H](CO)O2)c(=O)[nH]c1=O [AZT, 3'-azido-2',3'-dideoxythymidine] | < 1 | 88.4 | only slight antiviral activity; also recorded: only a slight effect on viral replication | 10300 | – | – | – | – | – | – | – | – | – | – | – | – | – | – | – |
| NC(=O)NO [HC, hydroxycarbamide] | – | – | incapable of preventing the production of infectious virions | – | > 50 | > 50 | 12500 | 82.6 | decreases dNTP levels and the DNA synthesis rate to levels comparable to quiescent PBLs; also recorded: decreases the dNTP levels and the DNA synthesis rate to levels comparable to quiescent PBLs | partially reduces the various dNTP pools studied | > 90 | 150 | 75460 pg of p24/ml | 82005 pg of p24/ml | > 70 | – | – | – | – |
| OC[C@@H]1CC[C@H](n2cnc3c(O)ncnc32)O1 [ddI, 2',3'-dideoxy-inosine] | – | 99.1 | reached substantially the same level of p24 production as the infected control; also recorded: only temporarily and partially inhibited | 766 | – | – | – | – | – | – | – | – | – | – | – | cytopathic effect was observed later | 97.1 | 2071 | 101080 |
